Measured values taken from patent publication US6699676B1, “Uses of ouabain and ouabain-like molecules in apoptosis related pathologies” (Corporation du Centre de Recherche du Centre, Hospitalier …, priority 1999, dated 2004).

What was measured:
[1] = system: VSMC-E1A; experiment: Chromatin cleavage assay in VSMC-E1A; type: cell-based, rat
Method: FIG. 2. Effect of ouabain on chromatin cleavage in VSMC-E1A. (A) Kinetics of the accumulation of chromatin fragments in control (curves 1, 3) and ouabain-treated (curves 2, 4) VSMC-E1A in the presence of 10% calf serum (CS, curves 1, 2) or in CS-free medium (curves 3, 4). Mean values ±S.E. obtained in experiments performed in quadruplicate are given. (B) Content of chromatin fragments in VSMC-E1A subjected to 6 hr of incubation in serum-supplied medium with or without 1 mM ouabain, 0.25 μM staurosporine, 1 μM okadaic acid and 350 mM mannitol. Mean values±S.E. obtained in 3 experiments performed in quadruplicate are given. ★, ★★ p<0.05 and 0.001 compared to ouabain-untreated cells. In both experiments, ouabain was added 1 hour before triggering of apoptosis.
(§1) Cells were incubated in K^+-containing medium consisting of 91 mM NaCl, 5 mM KCl, 0.9 mM NaH2PO4, 44 mM NaHCO3, 1.8 mM CaCl2, 0.8 mM MgCl2, 33 mM HEPES and 5 mM D-glucose (pH 7.4) (lines 1 and 2) or in K^+-depleted medium (equimolar substitution of KCl by NaCl, line 3) with or without 10% calf serum (CS) and 1 mM ouabain as indicated. In experiments with VSMC-MYC and VSMC-E1A, cells were preincubated for 1 hr with ouabain or with K^+-depleted medium in the presence of CS and then subjected to treatment with serum-free media. After 24 hours (VSMC) or 6 hours (VSMC-MYC and VSMC-E1A), the content of chromatin fragments was measured as described in Experimental Procedures. Mean values±S.E. obtained in 3 experiments performed in quadruplicate (VSMC) or triplicate (VSMC-MYC, VSMC-E1A) are given. ★, ★★ p<0.05 and 0.001 compared to the controls.
To estimate chromatin cleavage, cells were incubated for 1 hr in the presence of 10% calf serum (CS) in the control solution (DMEM, [Na^+]=137 mM; [K^+]=5 mM—line 1) or under equimolar substitution of NaCl by KCl ([Na^+]=14 mM; [K^+]=128 mM—line 2) with or without 1 mM ouabain and then for an additional 6 hours in the same media with or without CS. Intracellular Na^+ and K^+ content was measured as steady-state distribution of isotopes after 24 hours preincubation of cells in control Na^+-enriched solution containing 0.5 μCi/ml ^86Rb or 2 μCilml ^22Na, and additional 6 hours incubation in Na^+—(line 1) or K^+—(line 2) enriched medium, containing 10% CS and isotopes with the same specific activity with or without 1 mM ouabain. For more details see Experimental Procedures. Mean values±S.E. obtained in 3 experiments performed in triplicate (ion content) or quadruplicate (chromatin cleavage) are given. ★p<0.001 compared to ouabain-untreated cells.
VSMC-E1A cells were pretreated with compounds indicated in the left column during 2 hours in DMEM containing 10% calf serum and then additional 3 hours in the absence or presence of calf serum. The increment of the content of chromatin fragments triggered by serum withdrawal in control cells was taken as 100%. Means+S.E. from experiments performed with quadruplicate are given. ★p<0.001 as compared to control.
Cells. VSMC were obtained by explant methods from aortas of 10- to 13-week-old male rats as described previously (17), cultured in DMEM with 10% calf serum, 100 U/ml penicillin, 100 µg/ml streptomycin and used between 10 to 16 passages. Cells transfected with c-myc (VSMC-MYC) and E1A-adenovirus (VSMC-E1A) were obtained in accordance with a previously-described protocol (18,19) and were cultured in the same medium with the addition of 500 µg/ml genticin. Jurkat cells were obtained from the American Type Culture Collection and cultured in RPMI 1640 medium supplied with 10% calf serum, antibiotics, sodium pyruvate, glutamate and β-mercaptoethanol.
Chromatin cleavage assay. Chromatin cleavage in VSMC was estimated by a technique described previously in detail (10). Briefly, VSMC grown in 24-well dishes were labeled for 24 hours in serum-supplied DMEM with [^3H]-thymidine (1 μCi/ml), washed with 2×2 ml of DMEM and incubated in serum-supplied DMEM. […]

[2] = system: VSMC-MYC; experiment: Chromatin cleavage assay in VSMC-MYC; type: cell-based, rat; details: 1 mM ouabain, 1 hr preincubation, 6 hours
Method: as §1, with “Mean values±S.E. obtained in 3 experiments performed in quadruplicate (VSMC) or triplicate (VSMC-MYC, VSMC-E1A) are given. ★, ★★ p<0.05 and 0.001 compared to the controls.” left out
Chromatin cleavage assay. […] After 15 min, the cell lysate was transferred to Ependorf tubes, sedimented (12,000 rpm, 10 mm), and 1 ml of supernatant was transferred for the measurement of radioactivity (A1t). The remaining radioactivity from pellets and wells was extracted with 0.5 ml of 1% SDS/4 mM EDTA mixture, combined and counted (A2). Chromatin cleavage was quantified as the content of chromatin fragments normalized by total content of [^3H]-labeled DNA in accordance with the equation [1.5×(A1t−A1o)/(A2+A1t−1.5A1o)]×100% where A1o is the value of A1t before induction of apoptosis. […]

[3] = system: VSMC; experiment: ATP content in VSMC; details: 8 hours incubation with ouabain, data not shown

In the case of OC[C@@H](O)[C@@H](O)[C@H](O)[C@H](O)CO [mannitol], the “chromatin cleavage under hyperosmotic shrinkage” value ([1]; control and ouabain-treated VSMC-E1A, 350 mM mannitol, 6 hr) is reported as “insensitive to hyperosmotic shrinkage”.
CN[C@@H]1C[C@H]2O[C@@](C)([C@@H]1OC)n1c3ccccc3c3c4c(c5c6ccccc6n2c5c31)C(=O)NC4 [staurosporine] was tested, and the “content of chromatin fragments” value ([1]; VSMC-E1A, 6 hr, serum-supplied medium, 0.25 μM staurosporine, 1 μM okadaic acid) was 30.1±4.7%.
For C[C@@H]1O[C@@H](O[C@H]2C[C@@H](O)[C@]3(CO)[C@H]4[C@H](O)C[C@]5(C)[C@@H](C6=CC(=O)OC6)CC[C@]5(O)[C@@H]4CC[C@]3(O)C2)[C@H](O)[C@H](O)[C@H]1O [Ouabain, 1β,3β,5,11α,14,19-hexahydroxycard 20 [22]-enolide 3-[6-deoxy-α-L-mannopyrano-sidel]], the “Chromatin fragments (%)” value ([2]; 10% CS) was 1.4 ± 0.3%, the “Chromatin fragments (%)” value ([2]; CS-free) was 3.1 ± 0.4 % and the “apoptosis triggered by staurosporine and okadaic acid” value ([1]; VSMC-E1A, 1 mM ouabain, FIG. 2b) was “blocked”. For the same compound, the “Increment of chromatin fragments triggered by serum withdrawal(%)” value ([1]; VSMC-E1A, 1 mM, pretreated 2 hours then 3 hours with or without calf serum, control increment taken as 100%) was 21 ± 3 %, the “Chromatin fragments (%)” value ([1]; VSMC-E1A, 10% CS, 1 mM ouabain, 1 hr preincubation, 6 hours) was 1.5 ± 0.3 % and the “Chromatin fragments (%)” value ([1]; VSMC-E1A, CS-free, 1 mM ouabain, 1 hr preincubation, 6 hours) was 5.7 ± 0.6 %. For the same compound, the “baseline and serum withdrawal-induced chromatin cleavage” value ([1]; VSMC-E1A, ouabain added 1 hour before, FIG. 2a) was “blocked baseline as well as serum withdrawal-induced chromatin cleavage”, the “Chromatin fragments (%)” value ([1]; ouabain-treated VSMC-E1A, 1 mM, 10% CS, medium [Na+]o=14, [K+]o=128 mM, 1 hr + 6 hours) was 5.0% and the “Chromatin fragments (%)” value ([1]; ouabain-treated VSMC-E1A, 1 mM, 10% CS, medium [Na+]o=137, [K+]o=5 mM, 1 hr + 6 hours) was 1.9%. The “Chromatin fragments (%)” value ([1]; ouabain-treated VSMC-E1A, 1 mM, CS-free, medium [Na+]o=14, [K+]o=128 mM, 1 hr + 6 hours) was 32.0%, the “Chromatin fragments (%)” value ([1]; ouabain-treated VSMC-E1A, 1 mM, CS-free, medium [Na+]o=137, [K+]o=5 mM, 1 hr + 6 hours) was 6.3% and the ATP content [3] was “did not observe any significant effect”.
